Test results: paper PMC10144301, “Antiseizure Properties of Histamine H3 Receptor Antagonists Belonging 3,4-Dihydroquinolin-2(1H)-Ones” (Molecules, 2023)
Where “and” joins values, the source holds several entries; their conditions need not be identical. Identical values can stand only once.

How the values were obtained:
[1] = system: maximal electroshock seizure (MES) model; experiment: Maximal electroshock seizure (MES) model; format: in vivo; conditions: mice
Method: One of the two test models is the MES seizure model, another is the PTZ-induced seizure model. […] In addition, the administration of this dosage can minimize the impact of other possible side effects such as central inhibition and cardiac toxicity. […] In addition, the tested dose of VPA was 300 mg/kg. It could be seen that all animals in the control group experienced hindlimb stiffness after the electrical stimulation in the MES model. In the treated group, the definition of protection was the reduction or vanishing of the tonic hind limb extension (THLE) in mice. […] The neurological safety of the compounds 2h, 4a, and 4b was evaluated by the rotarod test. In the MES test, the definition of protection was the reduction or vanishing of the THLE in mice. In the PTZ test, the seizures were induced through the subcutaneous administration of PTZ (85 mg/kg). The antiseizure activities of the compounds in the PTZ test were evaluated by comparing the convulsion scores in mice between taking the compounds or not. VPA and PIT were used as positive drugs. To explore the anticonvulsive mechanism, compound 4a (10 mg/kg) was co-injected with RAMH (10 mg/kg). In addition, the THLE was recorded and compared with that of the mice treated by compound 4a alone. The detailed experimental operations in the MES, PTZ, and rotarod tests refer to our previous paper. All the animal experiments were carried out on 4-week-old KunMing male mice weighing from 20 to 25 g. The mice were housed collectively in polycarbonate cages in groups of 30, where they were maintained on a 12 h light/dark cycle in a temperature controlled (25 ± 2 °C) laboratory with free access to food and water. In the MES and PTZ models, seven animals were used in each group. In the rotarod test, three animals were used in each group. Each animal was used only once. All the experiments referring to animals were applied according to the Guide for the Care and Use of Laboratory Animals and were approved by the Medical Ethics Committee of Jinggangshan University, approval number: 220811002.

[2] = system: PTZ-induced seizure model; experiment: Pentylenetetrazole (PTZ)-induced seizure model; format: in vivo; conditions: mice, 10 mg/kg, i.p.; PTZ 85 mg/kg s.c.
Method: One of the two test models is the MES seizure model, another is the PTZ-induced seizure model. […] In addition, the administration of this dosage can minimize the impact of other possible side effects such as central inhibition and cardiac toxicity. […] In addition, the tested dose of VPA was 300 mg/kg. The PTZ model was usually used to screen the antiepileptic candidates for the absence of seizures. In this work, compounds 2a-2i, 3a-3c, and 4a-4b were also evaluated for their antiseizure action in the PTZ model in mice, while using VPA as the positive drug. […] The failure of synthesized compounds in the PTZ model is expected because our previously reported H3R inhibitors were also ineffective in the PTZ model. […] A considerable increase in histamine levels was found in the brain after MES-induced seizures, whereas a tendency toward a decrease in histamine levels was observed after PTZ-kindled convulsions. […] The neurological safety of the compounds 2h, 4a, and 4b was evaluated by the rotarod test. In the MES test, the definition of protection was the reduction or vanishing of the THLE in mice. […] The antiseizure activities of the compounds in the PTZ test were evaluated by comparing the convulsion scores in mice between taking the compounds or not. […] In addition, the THLE was recorded and compared with that of the mice treated by compound 4a alone. […]

[3] = Rotarod test for neurotoxicity; format: in vivo; conditions: rotarod test, mice, i.p., three animals per group
Method: A rotarod test was carried out to estimate the neurological safety of compounds 2h, 4a, and 4b.
The neurological safety of the compounds 2h, 4a, and 4b was evaluated by the rotarod test. In the MES test, the definition of protection was the reduction or vanishing of the THLE in mice. In the PTZ test, the seizures were induced through the subcutaneous administration of PTZ (85 mg/kg). The antiseizure activities of the compounds in the PTZ test were evaluated by comparing the convulsion scores in mice between taking the compounds or not. VPA and PIT were used as positive drugs. To explore the anticonvulsive mechanism, compound 4a (10 mg/kg) was co-injected with RAMH (10 mg/kg). In addition, the THLE was recorded and compared with that of the mice treated by compound 4a alone. The detailed experimental operations in the MES, PTZ, and rotarod tests refer to our previous paper. All the animal experiments were carried out on 4-week-old KunMing male mice weighing from 20 to 25 g. The mice were housed collectively in polycarbonate cages in groups of 30, where they were maintained on a 12 h light/dark cycle in a temperature controlled (25 ± 2 °C) laboratory with free access to food and water. In the MES and PTZ models, seven animals were used in each group. In the rotarod test, three animals were used in each group. Each animal was used only once. All the experiments referring to animals were applied according to the Guide for the Care and Use of Laboratory Animals and were approved by the Medical Ethics Committee of Jinggangshan University, approval number: 220811002.

[4] = system: maximal electroshock seizure (MES) model; set-up: method as in PMID 33325568; conditions: 10 mg/kg, previous work; cited from earlier work
[5] = system: PTZ-induced seizure model; set-up: method as in PMID 27853355; conditions: Sadek's study; cited from earlier work
[6] = system: photosensitive epilepsy; conditions: dose of 30 mg or 60 mg; cited from earlier work
[7] = system: electrical kindling model of epilepsy; conditions: cited from earlier work

Compound: Clc1ccc(CCCOCCCN2CCCCC2)cc1 [PIT, Pitolisant, reference compound]
- Duration of tonic hind limb extension (THLE), protection in MES model ([1]; 10 mg/kg, i.p., compared to control group): decreased the duration of THLE significantly
- THLE induced by MES ([1]; 30 mg/kg): fully abolished the THLE
- Dose dependence of protection in MES model ([1]; doses of 3, 10 and 30 mg/kg): dose-dependent antiseizure activity
- Protection against seizures induced by PTZ (seizure score) [2]: did not exhibit protection
- Neurotoxicity ([3]; 10 mg/kg): 0/3
- Neurotoxicity ([3]; 30 mg/kg): 0/3
- Neurotoxicity ([3]; 100 mg/kg, 100 mg/kg): no neurotoxicity and 0/3
- Antiseizure activity [4]: showed an antiseizure activity
- Effect in PTZ model [5]: failure
- Effect on photosensitive epilepsy and EEG [6]: can inhibit photosensitive epilepsy
- Antiseizure activity in electrical kindling model [7]: powerful antiseizure activity
